Results published in patent US10822349B2, “Macrocyclic purines for the treatment of viral infections” (JANSSEN SCIENCES IRELAND UNLIMITED COMPANY, priority 2012, dated 2020).

Assays:
[1] = system: interferon production in human PBMC; test: Interferon production in human PBMC, read out on HEK-ISRE-luc reporter cells; type: cell-based; conditions: Homo sapiens, PBMC, 24 h, lowest effective concentration, PBMC supernatant after overnight incubation transferred to HEK-ISRE-luc cells, read-out: PBMC HEK-ISRE-luc (LEC; μM)
Procedure: Activation of human TLR7 results in robust production of interferon by plasmacytoid dendritic cells present in human blood. The potential of compounds to induce interferon was evaluated by determination of interferon in the conditioned media from peripheral blood mononuclear cells (PBMC). The presence of interferon in the samples was determined, using an interferon reporter cell line stably expressing an interferon-stimulated responsive elements (ISRE)-luc reporter construct. The ISRE element with sequence GAAACTGAAACT (SEQ ID: 1) is highly responsive to the STAT1-STAT2-IRF9 transcription factor, which becomes activated upon binding of IFN-I to the IFN receptor. Briefly, PBMCs were prepared from buffy coats of at least two donors using a standard Ficoll centrifugation protocol. Isolated PBMCs were resuspended in RPMI medium supplemented with 10% human AB serum and 2×10^5 cells/well were dispensed into 384-well plates containing compounds (70 μL total volume). After overnight incubation of the PBMCs with the compounds, 10 μL of supernatant was transferred to 384-well plates containing 5×10^3 HEK-ISRE-luc cells/well in 30 μL (plated the day before). Following 24 hours of incubation, activation of the ISRE elements was measured by assaying luciferase activity using 40 μL/well Steady Lite Plus substrate (Perkin Elmer) and measured with ViewLux ultraHTS microplate imager (Perkin Elmer). The stimulating activity of each compound on the HEK-ISRE-luc cells was reported as LEC. The LEC in turn indicates the degree of ISRE activation on transfer of a defined amount of PBMC culture medium. Recombinant interferon alfa-2a (Roferon-A) was used as a standard control compound.

human TLR7 = molecular target: T1, human TLR7 (Homo sapiens, UniProt Q9NYK1); test: TLR7 cellular reporter assay (HEK293 TLR7-NFκB-luc); type: cell-based; conditions: lowest effective concentration; HEK293 transiently transfected with TLR7 and NFκB-luc; 6 hours incubation
T1 construct: expressed in transfected cells; host or cells: HEK293
T1 sequence (Q9NYK1 27-1049): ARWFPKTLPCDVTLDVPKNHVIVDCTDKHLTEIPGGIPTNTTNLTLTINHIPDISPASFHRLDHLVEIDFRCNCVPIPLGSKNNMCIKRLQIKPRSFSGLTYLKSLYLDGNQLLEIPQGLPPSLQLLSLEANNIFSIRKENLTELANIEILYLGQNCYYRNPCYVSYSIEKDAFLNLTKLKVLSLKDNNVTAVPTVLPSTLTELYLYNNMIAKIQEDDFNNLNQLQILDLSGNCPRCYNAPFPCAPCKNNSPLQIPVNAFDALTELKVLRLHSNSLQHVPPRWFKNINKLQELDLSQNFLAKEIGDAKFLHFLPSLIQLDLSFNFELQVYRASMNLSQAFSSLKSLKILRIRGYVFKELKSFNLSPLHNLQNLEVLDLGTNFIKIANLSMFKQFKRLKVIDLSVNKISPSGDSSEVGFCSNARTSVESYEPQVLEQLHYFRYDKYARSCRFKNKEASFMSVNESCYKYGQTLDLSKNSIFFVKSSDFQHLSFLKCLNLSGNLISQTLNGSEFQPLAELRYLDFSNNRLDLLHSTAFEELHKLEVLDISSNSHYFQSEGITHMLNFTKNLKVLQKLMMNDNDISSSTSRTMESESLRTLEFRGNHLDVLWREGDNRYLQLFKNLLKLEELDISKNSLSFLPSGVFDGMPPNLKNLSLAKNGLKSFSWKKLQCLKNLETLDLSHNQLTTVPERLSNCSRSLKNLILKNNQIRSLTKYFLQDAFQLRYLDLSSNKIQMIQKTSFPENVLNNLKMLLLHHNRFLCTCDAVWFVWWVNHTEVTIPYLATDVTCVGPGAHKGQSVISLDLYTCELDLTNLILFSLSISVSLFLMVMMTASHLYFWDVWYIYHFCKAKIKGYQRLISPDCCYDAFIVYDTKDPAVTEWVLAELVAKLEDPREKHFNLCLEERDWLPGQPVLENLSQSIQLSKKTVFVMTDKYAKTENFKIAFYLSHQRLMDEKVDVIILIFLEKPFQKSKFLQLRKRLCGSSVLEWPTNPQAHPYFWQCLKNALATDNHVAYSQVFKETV
Procedure: The ability of compounds to activate human TLR7 and TLR8 was assessed in a cellular reporter assay using HEK293 cells transiently transfected with a TLR7 or TLR8 expression vector and NFκB-luc reporter construct. Briefly, HEK293 cells were grown in culture medium (DMEM supplemented with 10% FCS and 2 mM Glutamine). For transfection of cells in 10 cm dishes, cells were detached with Trypsin-EDTA, transfected with a mix of CMV-TLR7 or TLR8 plasmid (750 ng), NFκB-luc plasmid (375 ng) and a transfection reagent and incubated 48 hours at 37° C. in a humidified 5% CO2 atmosphere. Transfected cells were then detached with Trypsin-EDTA, washed in PBS and resuspended in medium to a density of 1.67×10^5 cells/mL. Thirty microliters of cells were then dispensed into each well in 384-well plates, where 10 μL of compound in 4% DMSO was already present. Following 6 hours incubation at 37° C., 5% CO2, the luciferase activity was determined by adding 15 μl of Steady Lite Plus substrate (Perkin Elmer) to each well and readout performed on a ViewLux ultraHTS microplate imager (Perkin Elmer). Dose response curves were generated from measurements performed in quadruplicates. Lowest effective concentrations (LEC) values, defined as the concentration that induces an effect which is at least two fold above the standard deviation of the assay, were determined for each compound.

Compound	HEK293 TLR7-NFκB-luc (LEC; μM) (human TLR7) [µM]	minimal effective concentration [1] [µM]
COc1ccc2cc1CCCCCOc1nc(N)c3nc(O)n(c3n1)C2 [Compound 66]	0.032	0.018
COc1c2cccc1OCCCCOc1nc(N)c3nc(O)n(c3n1)C2 [Compound 59]	4.41	1.92
Nc1nc2nc3c1nc(O)n3Cc1cccc(c1)C/C=C/CCO2 [Compound 15]	0.12	0.016
Nc1nc2nc3c1ncn3Cc1cccc(c1)C/C=C\CCO2 [Compound 52]	7.96	4.8
Nc1nc2nc3c1nc(O)n3Cc1cccc(c1)OCCOCCO2 [Compound 12]	0.39	0.043
Nc1nc2nc3c1nc(O)n3Cc1cccc(c1)CCCCCC(CO)N2 (centres unmarked) [Compound 10]	5.26	0.53
Nc1nc2nc3c1nc(O)n3Cc1cc(ccn1)OCCCCCO2 [Compound 58]	0.63	0.086
COc1ccc2cc1Cn1c(O)nc3c(N)nc(nc31)OC/C=C/CO2 [Compound 63]	0.12	0.031
Nc1nc2nc3c1nc(O)n3Cc1cccc(=O)n1CCCCN2 [Compound 35]	1.68	0.41
Nc1nc2nc3c1nc(O)n3Cc1cccc(n1)OCC(=O)NCCCO2 [Compound 9]	0.30	0.098
Nc1nc2nc3c1nc(O)n3Cc1ccccc1C/C=C\CCO2 [Compound 48]	0.64	2.04
Nc1nc2nc3c1nc(O)n3Cc1cccc(c1)CCCCCN2 [Compound 31]	1.36	0.263
COc1ccc2cc1C/C=C\CCOc1nc(N)c3nc(O)n(c3n1)C2 [Compound 67]	0.0024	0.0028
Nc1nc2nc3c1nc(O)n3Cc1cccc(c1)OCC/C=C\CO2 [Compound 20]	0.74	0.15
Nc1nc2nc3c1nc(O)n3Cc1ncccc1OC/C=C/CCO2 [Compound 44]	5.77	0.62
Nc1nc2nc3c1nc(O)n3Cc1cccc(c1)OC/C=C/CO2 [Compound 23]	0.043	0.012
Nc1nc2nc3c1ncn3Cc1cccc(c1)OC/C=C\CO2 [Compound 55]	>25	15.3

Second part, led by results:

HEK293 TLR7-NFκB-luc (LEC; μM) (human TLR7) [µM]	Compound	minimal effective concentration [1] [µM]
0.12	Nc1nc2nc3c1nc(O)n3Cc1ccccc1OCCCCO2 [Compound 76]	0.064
0.53	Nc1nc2nc3c1nc(O)n3Cc1ccccc1OC/C=C\CO2 [Compound 77]	0.1
0.47	Nc1nc2nc3c1nc(O)n3Cc1ccc(F)c(c1)OCCCCN2 [Compound 92]	–
0.33	CN1CCOC(=O)Cc2cccc(c2)Cn2c(O)nc3c(N)nc1nc32 [Compound 85]	12.5
0.14	Nc1nc2nc3c1nc(O)n3Cc1ccc(F)c(c1)OCCCCO2 [Compound 91]	–
0.4	Nc1nc2nc3c1nc(O)n3Cc1ccc(F)c(c1)OC/C=C\CN2 [Compound 89]	–
0.11	Nc1nc2nc3c1nc(O)n3Cc1ccc(F)c(c1)OC/C=C\CO2 [Compound 88]	–
3.95	Nc1nc2nc3c1nc(O)n3CCc1cccc(c1)C/C=C/CCO2 [Compound 82]	–
0.063	Nc1nc2nc3c1nc(O)n3Cc1ccc(F)c(c1)OC/C=C/CN2 [Compound 90]	–
0.034	Nc1nc2nc3c1nc(O)n3Cc1ccc(F)c(c1)OC/C=C/CO2 [Compound 87]	–
